This is an account of results in patent publication US8487121B2, “Chromane derivatives as TRPV3 modulators” (Glenmark Pharmaceuticals S.A., priority 2007, dated 2013).

The test has as its target T1, Human TRPV3 (Homo sapiens, UniProt Q8NET8).
T1 construct: expressed in transfected cells; host or cells: CHO cells (G-418 selected)
T1 sequence (Q8NET8 1-790): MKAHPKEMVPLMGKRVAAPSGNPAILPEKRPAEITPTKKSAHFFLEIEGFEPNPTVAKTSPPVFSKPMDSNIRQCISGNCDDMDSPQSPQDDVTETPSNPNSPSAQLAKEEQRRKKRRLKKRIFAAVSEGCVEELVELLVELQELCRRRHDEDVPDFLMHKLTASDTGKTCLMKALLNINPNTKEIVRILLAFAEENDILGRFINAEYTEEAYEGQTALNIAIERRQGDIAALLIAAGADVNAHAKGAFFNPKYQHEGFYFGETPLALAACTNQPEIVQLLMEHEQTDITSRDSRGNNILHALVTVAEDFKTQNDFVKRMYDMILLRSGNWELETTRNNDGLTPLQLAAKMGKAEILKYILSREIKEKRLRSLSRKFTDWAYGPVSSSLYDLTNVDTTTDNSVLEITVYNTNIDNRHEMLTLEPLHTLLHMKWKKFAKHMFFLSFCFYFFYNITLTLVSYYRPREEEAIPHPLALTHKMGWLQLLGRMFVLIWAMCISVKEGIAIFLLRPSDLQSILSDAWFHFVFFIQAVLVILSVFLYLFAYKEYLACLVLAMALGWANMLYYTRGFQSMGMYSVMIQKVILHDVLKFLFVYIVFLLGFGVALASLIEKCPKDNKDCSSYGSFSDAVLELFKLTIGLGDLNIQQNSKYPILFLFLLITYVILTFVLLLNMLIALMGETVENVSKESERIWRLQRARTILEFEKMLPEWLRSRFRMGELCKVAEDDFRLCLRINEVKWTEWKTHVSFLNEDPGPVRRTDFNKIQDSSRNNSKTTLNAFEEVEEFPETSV
The experiment in a line: 45Calcium uptake assay: inhibition of 2-APB induced cellular uptake of radioactive calcium. It is filed as cell-based. Conditions: human TRPV3 expressing CHO cells, 2-APB 500 μM; for inhibition at 1 µM: 1.0 μM compound, read-out: Percentage inhibition at 1.0 μM; for inhibition at 10 µM: 10.0 μM compound, read-out: Percentage inhibition at 10.0 μM. A digest of the protocol:
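CHO cells stably expressing human TRPV3 (~50,000/well) were preincubated with compounds for 10 min in medium containing 0.1% BSA, 1.8 mM CaCl2 and 0.5% DMSO. Then 500 μM 2-APB and 5 μCi/ml 45Ca2+ were added for 4 min. Lysate radioactivity was expressed as % of maximal uninhibited response, and IC50 came from nonlinear regression, alongside % inhibition at 1.0 and 10.0 μM.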

For orientation: inhibition means the relative decrease from the control value, in per cent. A word on the IC50: it is the point on the concentration scale where inhibition reaches its midpoint. For `COc1ccc(CCC(=O)N[C@H]2CC3(CCC3)Oc3ccc(Cl)cc32)c2ccccc12` [Example 70, N-[(4S)-6-Chloro-3,4-dihydrospiro[chromene-2,1′-cyclobutan]-4-yl)-3-(4-methoxy)-1-naphthylpropanamide], the inhibition at 1 µM was 66.1%, the inhibition at 10 µM was 91.2% and the IC50 was 0.5 to 1 µM.

`O=C(CCc1ccc(OC(F)F)c2ccccc12)N[C@@H]1CC2(CCC2)Oc2ccc(Cl)cc21` [Example 71, (4R)-6-Chloro-N-(3,4-dihydrospiro[chromene-2,1′-cyclobutan]-4-yl)-3-(4-difluoro-methoxy-1-naphthyl)propanamide]: the inhibition at 1 µM was 53.5% and the inhibition at 10 µM was 95.5%.

Consider `O=C(CCc1ccc(OC(F)F)c2ccccc12)N[C@H]1CC2(CCC2)Oc2ccc(Cl)cc21` [Example 72, (4S)-6-Chloro-N-(3,4-dihydrospiro[chromene-2,1′-cyclobutan]-4-yl)-3-(4-difluoromethoxy-1-naphthyl)propanamide], for which the inhibition at 1 µM came out at 60.3%, the inhibition at 10 µM came out at 93.3% and the IC50 was in the range of 0.5 to 1 µM.

With `O=C(CCc1ccc2ccccc2c1)NC1CC2(CCC2)Oc2ccc(Cl)cc21` (stereo not drawn) [Example 73, N-(6-Chloro-3,4-dihydrospiro[chromene-2,1′-cyclobutan]-4-yl)-3-(2-naphthyl)propanamide], the inhibition at 1 µM came to 61.3%, the inhibition at 10 µM stood at 83.3% and the IC50 was 0.5 to 1 µM.

As for `COc1ccc2cc(CCC(=O)N[C@@H]3CC4(CCC4)Oc4ccc(Cl)cc43)ccc2c1` [Example 74], the inhibition at 1 µM is 64.1%, the inhibition at 10 µM was determined as 90.4% and the IC50 is 1 to 2 µM.

Consider `COc1ccc2cc(CCC(=O)N[C@H]3CC4(CCC4)Oc4ccc(Cl)cc43)ccc2c1` [Example 75], for which the inhibition at 1 µM is 46.6% and the inhibition at 10 µM came out at 90.4%.

With `O=C(CCc1ccc2ccccc2n1)NC1CC2(CCC2)Oc2ccc(Cl)cc21` (stereo not drawn) [Example 76, N-(6-Chloro-3,4-dihydrospiro[chromene-2,1′-cyclobutan]-4-yl)-3-(quinolin-2-yl)propanamide], the inhibition at 1 µM was determined as 23.5% and the inhibition at 10 µM came out at 58.8%.

Turning to `O=C(CCc1c[nH]c2ccccc12)NC1CC2(CCC2)Oc2ccc(Cl)cc21` (stereo not drawn) [Example 77, N-(6-Chloro-3,4-dihydrospiro[chromene-2,1′-cyclobutan]-4-yl)-3-(1H-indol-3-yl)-propanamide], the inhibition at 1 µM was determined as 39.4% and the inhibition at 10 µM was 81.8%.

`COc1ccc(CCC(=O)NC2CC3(CCC3)Oc3ccc(Cl)cc32)c2cc(C)oc12` (stereo not drawn) [Example 78, N-(6-chloro-3,4-dihydrospiro[chromene-2,1′-cyclobutan]-4-yl)-3-(2-methyl, 7-methoxy-1-benzofuran-4-yl)propanamide]: the inhibition at 1 µM was 46.1%, the inhibition at 10 µM came out at 91.3% and the half-maximal inhibitory concentration (IC50) was in the range of 0.5 to 1 µM.

With `COc1cc(CCC(=O)N[C@@H]2CC3(CCC3)Oc3ccc(Cl)cc32)cc2cc(C)oc12` [Example 79, N-[(4R)-6-Chloro-3,4-dihydrospiro[chromene-2,1′-cyclobutan]-4-yl]-3-(7-methoxy-2-methyl-1-benzofuran-5-yl)propanamide], the inhibition at 1 µM was found to be 51.5% and the inhibition at 10 µM was determined as 95.5%.

Consider `COc1cc(CCC(=O)N[C@H]2CC3(CCC3)Oc3ccc(Cl)cc32)cc2cc(C)oc12` [Example 80, N-[(4S)-6-chloro-3,4-dihydrospiro[chromene-2,1′-cyclobutan]-4-yl]-3-(7-methoxy-2-methyl-1-benzofuran-5-yl)propanamide], for which the inhibition at 1 µM worked out at 73.5%, the inhibition at 10 µM was 98.6% and the IC50 was in the range of 0.5 to 1 µM.

For `O=C(CCc1ccc2c(c1)OCCO2)NC1CC2(CCC2)Oc2ccc(F)cc21` (stereo not drawn) [Example 81], the inhibition at 1 µM was 29.1% and the inhibition at 10 µM came to 54.8%.

Regarding `O=C(CCc1cccc2c1OCO2)NC1CC2(CCC2)Oc2ccc(Cl)cc21` (stereo not drawn) [Example 82, 3-(1,3-Benzodioxol-4-yl)-N-[6-chloro-3,4-dihydrospiro[chromene-2,1′-cyclobutan]-4-yl]propanamide], the inhibition at 1 µM was 24.3% and the inhibition at 10 µM turned out to be 90.9%.

Take `O=C(CCc1cccc2c1OCO2)NC1CC2(CCC2)Oc2c(Cl)cccc21` (stereo not drawn) [Example 83, 3-(1,3-Benzodioxol-4-yl)-N-(8-chloro-3,4-dihydrospiro[chromene-2,1′-cyclobutan]-4-yl)propanamide]: the inhibition at 1 µM worked out at 11% and the inhibition at 10 µM amounted to 83.2%.

On to `O=C(CCc1cccc2c1OCCO2)NC1CC2(CCC2)Oc2ccc(Cl)cc21` (stereo not drawn) [Example 84], for which the inhibition at 1 µM turned out to be 11% and the inhibition at 10 µM was 83.2%.

As to `O=C(CCc1cccc2c1oc1ccccc12)NC1CC2(CCC2)Oc2ccc(Cl)cc21` (stereo not drawn) [Example 85, N-(6-Chloro-3,4-dihydrospiro[chromene-2,1′-cyclobutan]-4-yl)-3-(dibenzo[b,d]furan-4-yl)propanamide], the inhibition at 1 µM was 76.9%, the inhibition at 10 µM was determined as 90.4% and the IC50 is below 0.5 µM.

On to `COc1cccc(CCC(=O)NC2CC3(CCCC3)Oc3ccc(Cl)cc32)c1OC1CCCC1` (stereo not drawn) [Example 86, N-(6-Chloro-3,4-dihydrospiro[chromene-2,1′-cyclopentan]-4-yl)-3-(2-cyclopentyloxy-3-methoxy)propanamide], for which the inhibition at 1 µM was 11.6% and the inhibition at 10 µM is 66%.

Consider `COc1cccc(CCC(=O)NC2CC3(CCCCC3)Oc3ccc(Cl)cc32)c1OC1CCCC1` (stereo not drawn) [Example 87, N-(6-Chloro-3,4-dihydrospiro[chromene-2,1′-cyclohexan]-4-yl)-3-(2-cyclopentyloxy-3-methoxy)phenylpropanamide], for which the inhibition at 1 µM was found to be 26.7% and the inhibition at 10 µM worked out at 67.3%.

For the molecule `COc1cccc(CCC(=O)NC2CC(C)(C)Oc3ccccc32)c1OC1CCCC1` (stereo not drawn) [Example 88, N-(2,2-Dimethyl-3,4-dihydro-2H-chromen-4-yl)-3-(2-cyclopentyloxy-3-methoxy)phenylpropanamide], the inhibition at 1 µM came to 17.1% and the inhibition at 10 µM was found to be 93.2%.

`COc1cccc(CCC(=O)NC2CCSc3ccc(Cl)cc32)c1OC1CCCC1` (stereo not drawn) [Example 89, N-(6-chloro-3,4-dihydro-2H-thiochromen-4-yl)-3-(2-cyclopentyloxy-3-methoxyphenyl)-propanamide]: the inhibition at 1 µM turned out to be 38% and the inhibition at 10 µM was determined as 87.3%.

Consider `COc1ccc2ccccc2c1CCC(=O)NC1CCSc2ccc(Cl)cc21` (stereo not drawn) [Example 90, N-(6-chloro-3,4-dihydro-2H-thiochromen-4-yl)-3-(2-methoxy-1-naphthyl)propanamide], for which the inhibition at 1 µM came out at 49.2% and the inhibition at 10 µM was determined as 91.4%.

Consider `O=C(CCCc1ccccc1OC1CCCC1)NC1CC2(CCC2)Oc2ccc(Cl)cc21` (stereo not drawn) [Example 91, N-(6-Chloro-3,4-dihydrospiro[chromene-2,1′-cyclobutan]-4-yl)-4-(2-cyclopentyloxy-phenyl)butanamide], for which the inhibition at 1 µM stood at 51% and the inhibition at 10 µM was 82.5%.

Consider `COc1cccc(CCCC(=O)NC2CC3(CCC3)Oc3ccc(Cl)cc32)c1OC1CCCC1` (stereo not drawn) [Example 92, N-(6-Chloro-3,4-dihydrospiro[chromene-2,1′-cyclobutan]-4-yl)-4-[2-(cyclopentyloxy)-3-methoxyphenyl]butanamide], for which the inhibition at 1 µM worked out at 86.1%, the inhibition at 10 µM was 95.8% and the IC50 is below 0.5 µM.

With `COc1cccc(CCCC(=O)N[C@@H]2CC3(CCC3)Oc3ccc(Cl)cc32)c1OC1CCCC1` [Example 93, N-(4R)-6-Chloro-3,4-dihydrospiro[chromene-2,1′-cyclobutan]-4-yl-4-(2-cyclopentyloxy-3-methoxyphenyl)butanamide], the inhibition at 1 µM was 72.8%, the inhibition at 10 µM was determined as 94.2% and the IC50 fell in the range of 0.5 to 1 µM.

Consider `COc1cccc(CCCC(=O)N[C@H]2CC3(CCC3)Oc3ccc(Cl)cc32)c1OC1CCCC1` [Example 94], for which the inhibition at 1 µM turned out to be 79.7%, the inhibition at 10 µM stood at 97.2% and the 50% inhibitory concentration (IC50) is below 0.5 µM.

As for `COc1cccc(CCCC(=O)N[C@@H]2CC3(CCC3)Oc3c(Cl)cccc32)c1OC1CCCC1` [Example 95, (4R)—N-(8-Chloro-3,4-dihydrospiro[chromene-2,1′-cyclobutan]-4-yl)-4-(2-cyclopentyloxy-3-methoxyphenyl)butanamide], the inhibition at 1 µM is 71.8%, the inhibition at 10 µM worked out at 96.5% and the IC50 lay within 0.5 to 1 µM.
